Values after ≈ are worked out from the molar mass of the structure shown. Where two headings read alike, the source gives them in different places. Each block holds one molecule with its values, some of them ahead of it.
Key:
[1] = test system: MV released from growth-plate femurs chondrocytes; format: biochemical, chicken
[2] = test system: thermal and mechanical sensitivities; RS and NOx levels; format: in vivo, Swiss mice; settings: 1 mg kg-1, intragastric route
K562 cells = format: cell-based
LUCENA cells = format: cell-based
[3] = biological target: TRPV1 channel heterologously expressed in HEK293 cells (Homo sapiens, UniProt Q8NER1); test: cell-based; settings: HEK293, read-out: % inhibition of capsaicin-induced TRPV1 currents
TRPV1 channel heterologously expressed in HEK293 cells, sequence (Q8NER1 whole entry): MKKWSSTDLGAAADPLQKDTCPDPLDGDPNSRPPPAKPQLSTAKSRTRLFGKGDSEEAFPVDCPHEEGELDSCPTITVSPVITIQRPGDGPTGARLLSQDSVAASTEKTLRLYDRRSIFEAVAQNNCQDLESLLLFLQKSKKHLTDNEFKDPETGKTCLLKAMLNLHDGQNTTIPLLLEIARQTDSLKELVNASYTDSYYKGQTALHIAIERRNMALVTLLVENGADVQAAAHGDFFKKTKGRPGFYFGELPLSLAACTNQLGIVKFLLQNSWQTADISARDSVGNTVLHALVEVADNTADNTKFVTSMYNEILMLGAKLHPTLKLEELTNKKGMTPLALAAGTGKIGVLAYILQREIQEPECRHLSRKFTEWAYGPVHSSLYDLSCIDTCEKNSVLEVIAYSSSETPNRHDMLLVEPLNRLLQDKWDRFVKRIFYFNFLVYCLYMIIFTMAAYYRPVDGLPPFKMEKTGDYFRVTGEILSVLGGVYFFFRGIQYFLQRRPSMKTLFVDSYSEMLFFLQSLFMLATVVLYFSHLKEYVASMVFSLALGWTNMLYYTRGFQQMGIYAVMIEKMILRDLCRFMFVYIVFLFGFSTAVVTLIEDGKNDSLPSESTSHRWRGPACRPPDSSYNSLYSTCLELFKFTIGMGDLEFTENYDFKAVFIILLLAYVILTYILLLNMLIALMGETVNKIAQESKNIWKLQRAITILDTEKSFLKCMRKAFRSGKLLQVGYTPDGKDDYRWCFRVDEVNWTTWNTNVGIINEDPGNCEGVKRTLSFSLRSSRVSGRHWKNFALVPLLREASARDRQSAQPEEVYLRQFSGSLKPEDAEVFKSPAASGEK

α-synuclein = α-synuclein (Homo sapiens, UniProt P37840); format: cell-based, Saccharomyces cerevisiae; settings: 0.1 mM, without fermentation
[4] = test system: learning and memory behavior; format: in vivo, Swiss mice; settings: 10mg/kg, intragastrically
[5] = test system: glycated human erythrocyte; format: cell-based
C. neoformans (ATCC H99) = test: microbe, parasite or virus in culture; format: cell-based; settings: Cryptococcus neoformans
[6] = test system: Leishmania braziliensis old yellow enzyme (LbOYE); format: biochemical
[7] = test system: oral streptococci biofilm; format: cell-based, Streptococcus; settings: all species
[8] = test system: CE-AρBza serine proteases; format: biochemical, Canavalia ensiformis
[9] = 2 mg/ml
S. saprophyticus = format: cell-based
paw edema = settings: in vivo
gill V(H+)-ATPase = format: biochemical, Macrobrachium amazonicum; settings: read-out: constant enzyme inhibitor, 25 °C
[10] = biological target: dihydroorotate dehydrogenase from Schistosoma mansoni (SmDHODH) (Schistosoma mansoni, UniProt G4VFD7)
dihydroorotate dehydrogenase from Schistosoma mansoni (SmDHODH), sequence (G4VFD7 23-379 limits assumed): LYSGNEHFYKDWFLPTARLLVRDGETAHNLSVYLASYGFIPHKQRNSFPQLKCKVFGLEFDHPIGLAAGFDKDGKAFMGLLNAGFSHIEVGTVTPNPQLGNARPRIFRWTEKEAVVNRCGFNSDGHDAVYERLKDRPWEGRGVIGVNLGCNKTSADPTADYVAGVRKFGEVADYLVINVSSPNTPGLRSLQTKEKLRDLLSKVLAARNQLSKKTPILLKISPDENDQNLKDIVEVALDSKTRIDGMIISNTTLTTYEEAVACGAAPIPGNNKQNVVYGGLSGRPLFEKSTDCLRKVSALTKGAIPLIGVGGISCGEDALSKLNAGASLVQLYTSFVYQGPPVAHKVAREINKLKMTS

[11] = biological target: Ca2+-dependent BK channel (Homo sapiens, UniProt Q12791); format: cell-based
Ca2+-dependent BK channel, sequence (Q12791 whole entry): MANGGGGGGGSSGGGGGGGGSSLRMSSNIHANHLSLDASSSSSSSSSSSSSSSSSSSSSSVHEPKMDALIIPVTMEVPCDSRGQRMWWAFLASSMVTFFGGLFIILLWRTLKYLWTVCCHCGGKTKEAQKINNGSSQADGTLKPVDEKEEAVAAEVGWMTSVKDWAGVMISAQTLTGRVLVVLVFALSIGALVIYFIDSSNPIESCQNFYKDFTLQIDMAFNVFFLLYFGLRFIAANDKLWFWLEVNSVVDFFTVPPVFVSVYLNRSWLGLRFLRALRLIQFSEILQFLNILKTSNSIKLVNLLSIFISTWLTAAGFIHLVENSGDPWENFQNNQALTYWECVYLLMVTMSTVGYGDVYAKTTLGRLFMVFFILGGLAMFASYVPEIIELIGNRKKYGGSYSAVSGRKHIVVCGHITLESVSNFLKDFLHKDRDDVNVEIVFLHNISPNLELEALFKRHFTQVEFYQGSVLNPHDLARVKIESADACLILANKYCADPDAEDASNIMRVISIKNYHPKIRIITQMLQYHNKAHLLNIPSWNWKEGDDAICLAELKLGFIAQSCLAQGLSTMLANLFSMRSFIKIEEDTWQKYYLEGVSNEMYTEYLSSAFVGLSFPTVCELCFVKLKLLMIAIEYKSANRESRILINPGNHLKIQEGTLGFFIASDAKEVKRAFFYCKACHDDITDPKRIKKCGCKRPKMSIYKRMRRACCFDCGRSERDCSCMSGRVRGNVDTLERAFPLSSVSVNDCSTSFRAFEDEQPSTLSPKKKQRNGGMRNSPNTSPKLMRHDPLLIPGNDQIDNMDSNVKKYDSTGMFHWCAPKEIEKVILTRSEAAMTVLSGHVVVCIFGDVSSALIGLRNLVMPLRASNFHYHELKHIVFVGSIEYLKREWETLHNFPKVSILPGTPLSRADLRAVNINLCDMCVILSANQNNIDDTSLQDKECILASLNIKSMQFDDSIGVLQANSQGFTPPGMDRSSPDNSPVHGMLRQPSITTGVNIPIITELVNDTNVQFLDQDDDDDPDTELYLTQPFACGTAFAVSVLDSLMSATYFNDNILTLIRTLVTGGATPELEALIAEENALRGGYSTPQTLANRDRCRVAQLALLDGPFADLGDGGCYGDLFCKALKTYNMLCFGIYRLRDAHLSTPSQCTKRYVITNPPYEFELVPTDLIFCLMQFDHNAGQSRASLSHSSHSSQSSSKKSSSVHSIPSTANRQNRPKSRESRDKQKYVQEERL

IGR39 cells = format: cell-based
K562 = format: cell-based
Drosophila melanogaster = settings: 48 hours
rat serum albumin (RSA) = rat serum albumin (RSA) (Rattus norvegicus, UniProt P02770); format: binding; settings: interaction density function method; two cooperative sites
rat serum albumin (RSA), sequence (P02770 25-608): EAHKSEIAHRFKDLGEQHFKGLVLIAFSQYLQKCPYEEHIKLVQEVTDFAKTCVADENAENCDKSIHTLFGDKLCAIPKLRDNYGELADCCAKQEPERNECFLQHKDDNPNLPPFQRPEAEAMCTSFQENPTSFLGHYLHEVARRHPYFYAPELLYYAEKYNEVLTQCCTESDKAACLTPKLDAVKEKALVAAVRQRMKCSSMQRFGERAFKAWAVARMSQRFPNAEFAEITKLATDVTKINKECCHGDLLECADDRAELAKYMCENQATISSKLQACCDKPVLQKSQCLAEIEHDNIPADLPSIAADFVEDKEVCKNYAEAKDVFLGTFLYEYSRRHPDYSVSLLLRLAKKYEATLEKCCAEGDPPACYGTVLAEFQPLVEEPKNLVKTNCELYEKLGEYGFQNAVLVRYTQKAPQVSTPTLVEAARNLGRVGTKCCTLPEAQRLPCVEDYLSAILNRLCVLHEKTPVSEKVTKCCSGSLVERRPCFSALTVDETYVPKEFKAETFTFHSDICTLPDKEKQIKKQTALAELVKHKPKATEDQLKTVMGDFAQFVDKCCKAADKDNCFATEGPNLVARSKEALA

[12] = test system: inflammation, nociception and oxidative stress; settings: mouse, in vivo

Molecule: C[C@@H]1O[C@@H](O[C@H]2C[C@@H](O)[C@]3(CO)[C@H]4[C@H](O)C[C@]5(C)[C@@H](C6=CC(=O)OC6)CC[C@]5(O)[C@@H]4CC[C@]3(O)C2)[C@H](O)[C@H](O)[C@H]1O [ouabain]
- MV activity in the presence of inhibitor ([1]; 31P-NMR and colorimetric techniques): ~95%

Molecule: Clc1ccc2c([Se]c3ccccc3)ccnc2c1 [4-PSQ, 7-Chloro-4-(phenylselanyl) quinoline]
- hypersensitivity [2]: reversed hypersensitivity induced by OXA and aging
- RS and NOx levels ([2]; both ages): reduced the RS and NOx levels

Molecule: sodium selenite [Na2SeO3]
- proliferation (K562 cells): significant reduction
- mitochondrial membrane potential (JC-1) (K562 cells; 24 hours): significant reduction for all concentration
- cell viability (MTT) (K562 cells; 48 hours): significant reduced only in 100 μM or 1000 μM
- reduction in cell number (LUCENA cells; 1000 μM, 48 hours): 66%
- mitochondrial membrane potential (JC-1) (LUCENA cells; 24 hours): only at concentrations of 100 μM and 1000 μM

- inhibition at 0.1 µM [3]: 62 ± 8%
Molecule: CC(C)(O)c1ccccc1CC[C@@H](SCC1(CC(=O)O)CC1)c1cccc(/C=C/c2ccc3ccc(Cl)cc3n2)c1 [Montelukast]

- protein aggregation (α-synuclein): did not inhibit
Molecule: O=C(/C=C/c1ccc(O)c(O)c1)OCCc1ccccc1 [CAPE, phenethyl ester of caffeic acid]

Molecule: COc1ccc(Sc2ccc3nsnc3c2)cc1 [MTDZ, 5-((4-methoxyphenyl)thio)benzo[c][1,2,5]thiadiazole]
- behavioral changes caused by SCO [4]: attenuated the behavioral changes caused by SCO

- inhibition at 0.1 µM [3]: 60 ± 7%
Molecule: CO[C@@H]1[C@@H](OC(N)=O)[C@@H](O)[C@H](Oc2ccc3c(O)c(NC(=O)c4ccc(O)c(CC=C(C)C)c4)c(=O)oc3c2C)OC1(C)C [Novobiocin]

Molecule: CC(=O)O[C@H]1C[C@@H]2CC[C@@H]3[C@H](CC[C@@]4(C)[C@H]3C[C@H]([N+]3(C)CCCCC3)[C@@H]4OC(C)=O)[C@@]2(C)C[C@@H]1N1CCCCC1 [V, vecuronium]
- surface viscosity (η) [5]: increase

- MIC (C. neoformans (ATCC H99)): 0.047 to 3.12 µM (≈ 0.0147 to 0.979 µg/mL)
Molecule: COC(=O)Nc1nc2cc(C(=O)c3ccc(F)cc3)ccc2[nH]1 [flubendazole]

- significant inhibition of LbOYE activity [6]: did not show significant inhibition
Molecule: CC(C)c1cc2c(c(O)c1O)C[C@@]13CCCC(C)(C)[C@@H]1C[C@@H]2O3 [brussonol]

Molecule: N-acetylcysteine [NAC]
- concentration shown to inhibit biofilm formation [7]: 12.5 mg/mL

Molecule: N=C(N)c1ccccc1 [benzamidine]
- inhibition of CE-AρBza ([8]; BTEE as substrate): 100%
- inhibition of CE-AρBza ([8]; L-TAME as substrate): 77%

- degradation [9]: highly sucesptible to degradation
Molecule: CC1=C(C(=O)O)N2C(=O)[C@@H](NC(=O)[C@H](N)c3ccccc3)[C@H]2SC1 [Cephalexin]

- MIC (C. neoformans (ATCC H99)): 0.047 to 3.12 µM (≈ 0.0141 to 0.935 µg/mL)
Molecule: COC(=O)Nc1nc2ccc(Sc3ccccc3)cc2[nH]1 [fenbendazole]

- MIC (C. neoformans (ATCC H99)): 0.047 to 3.12 µM (≈ 0.0139 to 0.923 µg/mL)
Molecule: COC(=O)Nc1nc2ccc(C(=O)c3ccccc3)cc2[nH]1 [mebendazole]

Molecule: CN[C@H](CC(C)C)C(=O)N[C@H]1C(=O)N[C@@H](CC(N)=O)C(=O)N[C@H]2C(=O)N[C@H]3C(=O)N[C@H](C(=O)N[C@H](C(=O)O)c4cc(O)cc(O)c4-c4cc3ccc4O)[C@H](O)c3ccc(c(Cl)c3)Oc3cc2cc(c3O[C@@H]2O[C@H](CO)[C@@H](O)[C@H](O)[C@H]2O[C@H]2C[C@](C)(N)[C@H](O)[C@H](C)O2)Oc2ccc(cc2Cl)[C@H]1O [vancomycin]
- reduction of the MIC value in combination (S. saprophyticus): 4 times

Molecule: Rhodium chloride [RhCl3]
- paw edema (paw edema): able to reduce paw edema

Molecule: CO/C1=C\C(C)=C\[C@@H](C)[C@@H](O)[C@@H](C)C/C(C)=C/C=C/[C@H](OC)[C@@H]([C@@H](C)[C@@H](O)[C@H](C)C2(O)C[C@@H](O)[C@H](C)[C@@H](C(C)C)O2)OC1=O (some centres unmarked) [bafilomycin]
- Ki (gill V(H+)-ATPase; Grande river population): 21.2 ± 1.3 nM
- Ki (gill V(H+)-ATPase; Tietê river population): 35.1 ± 1.1 nM

Molecule: O=C1C(O)=C([C@H]2CC[C@H](c3ccc(Cl)cc3)CC2)C(=O)c2ccccc21 [atovaquone]
- inhibition of SmDHODH [10]: in the nanomolar range

Molecule: DCPIB
- currents ([11]; IGR37 cells): not in IGR37 cells
- currents ([11]; Panc1, MiaPaca2 and IGR39 cells): dramatic increase of currents
- Ca2+ influx (IGR39 cells): induces a rapid Ca2+ influx

Molecule: CN(C)C(=N)N=C(N)N [metformin]
- interaction with cisplatin (K562 cell line): synergism

- MIC (C. neoformans (ATCC H99)): 0.047 to 3.12 µM (≈ 0.0125 to 0.829 µg/mL)
Molecule: CCCSc1ccc2nc(NC(=O)OC)[nH]c2c1 [Albendazole]

Molecule: NC(=O)NC1NC(=O)NC1=O (centres unmarked) [allantoin]
- death caused by cisplatin (K562): reduction

Molecule: CC(C)c1cccc(C(C)C)c1O [P, propofol]
- deformability index (DI) [5]: decreases
- erythrocyte elastic modulus (μ) [5]: significant increase

Molecule: c1ccc([C@H]2CN3CCSC3=N2)cc1 [Levamisole]
- effectiveness of inhibition of MV activity compared with ouabain [1]: more effective

Molecule: COc1cc2c(c(OC)c1OC)-c1ccc(OC)c(=O)cc1[C@@H](NC(C)=O)CC2 [COL, colchicine]
- survival rate (Drosophila melanogaster; 0.001-0.010 mg/mL): did not affect the fly survival rate
- TBARS levels (Drosophila melanogaster): elevated in the 0.0025 mg/mL and 0.005 mg/mL groups
- reactive species (RS) levels (Drosophila melanogaster): increase in RS levels at concentrations of 0.0025 and 0.005 mg/mL

- binding constants (rat serum albumin (RSA)): moderate binding constants
Molecule: Piperlongumine [PPL]

Molecule: Se-[(2,2-dimethyl-1,3-dioxolan-4-yl) methyl] 4-chlorobenzoselenolate [Se-DMC]
- NPSH content [12]: No alteration
- RS levels in paw [12]: reduced the RS levels

Reference: publication PMC8551951 (Biophysical Reviews, 2021)
